Key:
HCC-PDX model 5 = experiment: Patient-derived HCC xenograft model 5, tumor growth; type: in vivo, BALB/c nude mice
Description: (§1) The PDX studies were carried out by WuXi AppTec (Shanghai, China). HCC-PDX models were originally established from surgically resected tumor tissue that was implanted in 6–8-week-old female BALB/c nude mice. Animal studies were performed according to the guidelines approved by the Institutional Animal Care and Use Committee of Wuxi AppTec, which follow the guidance of the Association for the Assessment and Accreditation of Laboratory Animal Care. Animals were routinely monitored for their health status and their body weights. Treatment was suspended and/or doses reduced at body weight losses >10%. Animals were euthanized when the tumor size exceeded 2000 mm^3. Pieces from tumor xenografts (∼30 mm^3) from passages 4–8 (ST1) were implanted subcutaneously at the right flank, and tumors were grown to an average size of about 150–200 mm^3. […] Tumor size was measured twice weekly using caliper measurements. Tumor volume (mm^3) was calculated using the formula 0.5 a × b^2, where a and b are the long and short diameters of the tumor, respectively. TGI was assessed either by calculating the ratio of the mean tumor volumes of treated and control groups or by determination of the RTV, which relates tumor volumes at any given day of treatment to the volume at the first treatment day.
(§2) In the syngenic orthotopic H129 model, differences in survival times between groups were analyzed for significance using log-rank tests. Analysis of tumor volumes of the HCC-PDX models was performed with log2-transformed values on defined days of measurement based on the assumption of their log-normal distribution. […] All respective statistical test results were derived from a common linear model that allows for individual variances in the different groups. The adjustment for multiple testing was carried out using Šidák correction at a significance level of 0.05. Back transformation of the mean difference of log2-transformed tumor volumes led to the ratios of the compared groups, whereby ratios of 1 reflect no difference in tumor volumes and ratios below or above 1 reflect smaller or larger tumor volumes, respectively, of the respective second group. The analyses of RTV were carried out in a similar fashion without the log2 transformation of values. Bead-based western data were analyzed (described in [15]) using the MEV 4.8.1 software package. A p-value <0.05 was regarded as significant. All statistical analyses were performed with SAS® 9.4 [34].

HCC-PDX model 10 = experiment: Patient-derived HCC xenograft model 10, tumor growth; type: in vivo, BALB/c nude mice
Description: as §1, §2

HCC-PDX model 19 = experiment: Patient-derived HCC xenograft model 19, tumor growth; type: in vivo, BALB/c nude mice
Description: as §1, §2

HCC-PDX model 20 = experiment: Patient-derived HCC xenograft model 20, tumor growth; type: in vivo, BALB/c nude mice
Description: as §1, §2

HCC-PDX model 61 = experiment: Patient-derived HCC xenograft model 61, tumor growth; type: in vivo, BALB/c nude mice
Description: as §1, §2

HCC-PDX model 101 = experiment: Patient-derived HCC xenograft model 101, tumor growth; type: in vivo, BALB/c nude mice
Description: as §1, §2

HCC-PDX model 141 = experiment: Patient-derived HCC xenograft model 141, tumor growth; type: in vivo, BALB/c nude mice
Description: as §1, §2

HCC-PDX model 159 = experiment: Patient-derived HCC xenograft model 159, tumor growth; type: in vivo, BALB/c nude mice
Description: as §1, §2

HCC-PDX model 189 = experiment: Patient-derived HCC xenograft model 189, tumor growth; type: in vivo, BALB/c nude mice
Description: as §1, §2

HCC-PDX model 217 = experiment: Patient-derived HCC xenograft model 217, tumor growth; type: in vivo, BALB/c nude mice
Description: as §1, §2

[1] = system: 10 patient-derived HCC xenograft (HCC-PDX) models; experiment: Panel of 10 HCC-PDX models, overall response and tolerability; type: in vivo, BALB/c nude mice
Description: as §1
In the syngenic orthotopic H129 model, differences in survival times between groups were analyzed for significance using log-rank tests. Analysis of tumor volumes of the HCC-PDX models was performed with log2-transformed values on defined days of measurement based on the assumption of their log-normal distribution. […] All respective statistical test results were derived from a common linear model that allows for individual variances in the different groups. The adjustment for multiple testing was carried out using Šidák correction at a significance level of 0.05. […] Bead-based western data were analyzed (described in [15]) using the MEV 4.8.1 software package. […]

[2] = Steady-state plasma pharmacokinetics after oral dosing for 5 days; type: in vivo, BALB/c nu/nu mice
Description: Pharmacokinetic studies were performed in 6–8-week-old female BALB/c nu/nu mice (Charles River, Sulzfeld, Germany). […] Parent compounds and metabolites M-2 and M-5 were analyzed in plasma samples using validated bioanalytical liquid chromatography-tandem mass spectrometry (LC-MS/MS) methods according to an experimental protocol described earlier. PK parameters, namely the AUC(0–24)ss and Cmax, were calculated from plasma concentrations using a non-compartmental analysis.

[3] = day 28, R 10 / S 30 mg/kg/day oral starting dose
[4] = plasma analyte after oral sorafenib tosylate 30 mg/kg/day (21.9 mg/kg/day sorafenib) for 5 days

CNC(=O)c1cc(Oc2ccc(NC(=O)Nc3ccc(Cl)c(C(F)(F)F)c3)cc2)ccn1 [Sorafenib]
Mean TV (HCC-PDX model 5; [3]): 134.44 mm^3
log TV Differences of least square-means, compound vs vehicle (HCC-PDX model 5; day 28, log2-transformed TV): -24,884
RTV Differences of least square-means, compound vs vehicle (HCC-PDX model 5; day 46): -54,048
RTV (HCC-PDX model 5; end of study, day 46): 1.74
Mean TV (HCC-PDX model 10; day 12, R 10 / S 30 mg/kg/day oral): 607.16 mm^3
log TV Differences of least square-means, compound vs vehicle (HCC-PDX model 10; day 12, log2-transformed TV): -17,966
RTV (HCC-PDX model 10; end of study (RTV analysis day R 40, S 30)): 13.39
Mean TV (HCC-PDX model 19; [3]): 496.54 mm^3
log TV Differences of least square-means, compound vs vehicle (HCC-PDX model 19; day 28, log2-transformed TV): -0.6887
RTV Differences of least square-means, compound vs vehicle (HCC-PDX model 19; day 42): -29.3
RTV (HCC-PDX model 19; end of study, day 42): 4.70
Mean TV (HCC-PDX model 20; day 21, R 10 / S 30 mg/kg/day oral): 737.74 mm^3
log TV Differences of least square-means, compound vs vehicle (HCC-PDX model 20; day 21, log2-transformed TV): -0.3573
RTV Differences of least square-means, compound vs vehicle (HCC-PDX model 20; day 42): -12.2
RTV (HCC-PDX model 20; end of study, day 42): 10.55
Mean TV (HCC-PDX model 61; day 25, R 10 / S 30 mg/kg/day oral): 424.86 mm^3
RTV (HCC-PDX model 61; end of study (RTV analysis day R 42, S 36)): 5.28
Mean TV (HCC-PDX model 101; [3]): 416.97 mm^3
RTV (HCC-PDX model 101; end of study, day 42): 5.37
Mean TV (HCC-PDX model 141; [3]): 139.51 mm^3
RTV (HCC-PDX model 141; end of study, day 42): 2.16
Mean TV (HCC-PDX model 159; [3]): 1144.22 mm^3
log TV Differences of least square-means, compound vs vehicle (HCC-PDX model 159; day 28, log2-transformed TV): -0.3943
RTV (HCC-PDX model 159; end of study, day 35): 9.73
RTV Differences of least square-means, compound vs vehicle (HCC-PDX model 189; day 21): -29,028
Mean TV (HCC-PDX model 189; day 21, R 10 / S 30 mg/kg/day oral starting dose): 351.96 mm^3
log TV Differences of least square-means, compound vs vehicle (HCC-PDX model 189; day 21, log2-transformed TV): -10,604
RTV (HCC-PDX model 189; end of study, day 21): 2.66
Mean TV (HCC-PDX model 217; day 13, R 10 / S 30 mg/kg/day oral): 1087.45 mm^3
log TV Differences of least square-means, compound vs vehicle (HCC-PDX model 217; day 13, log2-transformed TV): -10,119
RTV (HCC-PDX model 217; end of study (RTV analysis day R 24, S 20)): 10.84
Models with significant tumor growth inhibition ([1]; 10 HCC-PDX models, regorafenib 10, sorafenib 30 mg/kg/day oral): 7/10
Dose reductions and/or treatment interruptions ([1]; HCC-PDX models, sorafenib compared with regorafenib): more often
AUC(0–24)ss (percent of total) ([2]; after oral sorafenib tosylate 30 mg/kg/day for 5 days, total = molar sum of sorafenib and M-2): 99% of total
AUC(0–24)ss [2, 4]: 177 µM·h
Cmax [2, 4]: 23.9 µM
Estimated Cmax ([2]; sorafenib 30 mg/kg/day related to free base (HCC-PDX study dose), assuming dose linearity): 33.6 µM
Cumulated maximum concentration (Cmax) ([2]; sorafenib tosylate 30 mg/kg once daily for 5 days, parent plus metabolites): 24.5 µM

Reference: article PMC5739799 (Oncotarget, 2017)
